Patent US7227038B2, “Adamantane derivatives, processes for their preparation and pharmaceutical composition containing them” (AstraZeneca AB, priority 2003, dated 2007)
Counter-ions that a name gives are not always drawn.

Assays:
[1] = target: T1, P2X7 receptor (Homo sapiens, UniProt Q99572); experiment: bbATP-induced ethidium bromide uptake (fluorescence) in THP-1 cells, P2X7 receptor antagonist activity; format: cell-based; conditions: 10^-5M bbATP, 37° C. for one hour, read-out: pIC50 (negative logarithm of the concentration of test compound necessary to reduce the bbATP agonist activity by 50%) (converted)
T1 construct: 200 μl of a suspension of THP-1 cells; endogenous in cells; host or cells: THP-1 cells
T1 sequence (Q99572 1-595): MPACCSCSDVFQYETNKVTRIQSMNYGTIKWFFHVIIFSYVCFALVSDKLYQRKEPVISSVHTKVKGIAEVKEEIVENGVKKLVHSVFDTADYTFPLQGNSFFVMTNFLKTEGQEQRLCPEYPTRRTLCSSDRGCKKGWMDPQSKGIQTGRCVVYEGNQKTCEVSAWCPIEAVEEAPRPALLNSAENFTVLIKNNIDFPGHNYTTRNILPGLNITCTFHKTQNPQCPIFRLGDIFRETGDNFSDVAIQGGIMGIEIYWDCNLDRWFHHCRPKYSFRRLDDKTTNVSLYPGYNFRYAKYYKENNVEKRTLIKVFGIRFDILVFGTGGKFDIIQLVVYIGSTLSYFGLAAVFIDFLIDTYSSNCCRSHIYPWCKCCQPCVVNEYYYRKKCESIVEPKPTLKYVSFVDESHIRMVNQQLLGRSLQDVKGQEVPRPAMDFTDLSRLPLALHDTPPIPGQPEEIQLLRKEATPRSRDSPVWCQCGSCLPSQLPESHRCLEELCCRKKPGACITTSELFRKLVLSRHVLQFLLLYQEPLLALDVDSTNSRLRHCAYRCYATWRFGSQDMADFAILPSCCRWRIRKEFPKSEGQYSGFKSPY
From the text: Certain compounds such as benzoylbenzoyl adenosine triphosphate (bbATP) are known to be agonists of the P2X7 receptor, effecting the formation of pores in the plasma membrane (Drug Development Research (1996), 37(3), p.126). Consequently, when the receptor is activated using bbATP in the presence of ethidium bromide (a fluorescent DNA probe), an increase in the fluorescence of intracellular DNA-bound ethidium bromide is observed. The increase in fluorescence can be used as a measure of P2X7 receptor activation and therefore to quantify the effect of a compound on the P2X7 receptor.
In this manner, each of the title compounds of the Examples was tested for antagonist activity at the P2X7 receptor. Thus, the test was performed in 96-well flat bottomed microtitre plates, the wells being filled with 250 μl of test solution comprising 200 μl of a suspension of THP-1 cells (2.5×10^6 cells/ml) containing 10^−4M ethidium bromide, 25 μl of a high potassium buffer solution containing 10^−5M bbATP, and 25 μl of the high potassium buffer solution containing 3×10^−5M test compound. The plate was covered with a plastics sheet and incubated at 37° C. for one hour. The plate was then read in a Perkin-Elmer fluorescent plate reader, excitation 520 nm, emission 595 nm, slit widths: Ex 15 nm, Em 20 nm. […]

Structure (SMILES) | melting point | IC50 [1] [nM]
CNC[C@@H](O)Cc1ccc(Cl)c(C(=O)NCC23CC4CC(CC(C4)C2)C3)c1 (as salt: hydrochloride) | 196 °C | 
CCNC[C@H](O)Cc1ccc(Cl)c(C(=O)NCC23CC4CC(CC(C4)C2)C3)c1 (as salt: hydrochloride) | 218 °C | 
CC(C)NC[C@H](O)Cc1ccc(Cl)c(C(=O)NCC23CC4CC(CC(C4)C2)C3)c1 (as salt: hydrochloride) | 189 °C | 
O=C(NCC12CC3CC(CC(C3)C1)C2)c1cc(C[C@@H](O)CNCCCO)ccc1Cl (as salt: hydrochloride) | 225 °C | 
CCNC[C@@H](O)Cc1ccc(Cl)c(C(=O)NCC23CC4CC(CC(C4)C2)C3)c1 (as salt: hydrochloride) [Example 14, 2-Chloro-5-[(2S)-3-(ethylamino)-2-hydroxypropyl]-N-(tricyclo [3.3.1.1^3,7]dec-1-ylmethyl)-benzamide, hydrochloride salt] | 214 °C | 
CNC[C@@H](O)CCc1ccc(Cl)c(C(=O)NCC23CC4CC(CC(C4)C2)C3)c1.Cl [Example 1, 2-Chloro-5-[(3S)-3-hydroxy-4-(methylamino)butyl]-N-(tricyclo[3.3.1.1^3,7]dec-1-ylmethyl)benzamide, hydrochloride] | > 200 °C (dec.) | 10
CN(C)C[C@H](O)Cc1ccc(Cl)c(C(=O)NCC23CC4CC(CC(C4)C2)C3)c1 [Example 8, 2-Chloro-5-[(2R)-3-(dimethylamino)-2-hydroxypropyl]-N-(tricyclo[3.3.1.1^3,7]dec-1-ylmethyl)-benzamide, hydrochloride] |  | 3.98
